This is an account of results in ChEMBL document CHEMBL1201862, “PubChem BioAssay data set” (2004).

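Following 48 hours of exposure in 96-well plates, responses at five concentrations were used to interpolate endpoints linearly. GI50: concentration for 50% inhibition of growth.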 The source made the active and inactive calls. Cut-off read from the data, not from the text of the source: active = GI50 up to about 1.1 µM and inactive = higher.

Some test systems named below: COLO 205; EKVX; HCT-116; HCT-15; HL-60; HOP-62; HOP-92; Hs-578T; K562; MDA-MB-435; NCI-H23; PC-3; SK-MEL-28; SK-MEL-5; SK-OV-3; SNB-75; T47D; UACC-257; NCI-H226.
Holding throughout (experiment): growth of human tumour cells (NCI), 48 h

For `COc1cc(S(=O)(=O)Nc2ccc(-c3csc(N4C(=O)C(Cl)C4c4ccccc4)n3)cc2)ccc1Cl` (stereo not drawn), the GI50 was 37.9 µM (inactive) in the assay on COLO 205; 31.9 µM (inactive) in the assay with EKVX; 59.6 µM (inactive) in the assay on HCT-116; greater than 100 µM with HCT-15; 54.6 µM (inactive) with HL-60; 69.2 µM (inactive) in the assay with HOP-62. In addition, the GI50 in the assay on HOP-92 was 18.2 µM (inactive); with Hs-578T, > 100 µM (inactive); in the assay on K562, 32.2 µM (inactive); in the assay on MDA-MB-435, 38.5 µM (inactive); with NCI-H23, 25.6 µM (inactive); in the assay with PC-3, > 100 µM (inactive). For the same compound, the GI50 in the assay with SK-MEL-28 was 66.5 µM (inactive); in the assay with SK-MEL-5, 25.2 µM (inactive); with SK-OV-3 it was > 100 µM (inactive); in the assay with SNB-75, 22.8 µM (inactive); in the assay with T47D it was 28.4 µM (inactive); in the assay with UACC-257, 8.45 µM (inactive).
Take `Oc1ccc2ccccc2c1C(c1ccc(Cl)cc1)c1c(O)ccc2ccccc12`: the GI50 is 2.06 µM (inactive) in the assay on COLO 205; 2.59 µM (inactive) in the assay on EKVX; 2.48 µM (inactive) in the assay with HCT-116; 3.49 µM in the assay on HCT-15; 2.34 µM (inactive) with HL-60; 3.89 µM (inactive) in the assay on HOP-62. Further, the GI50 in the assay with HOP-92 is 1.65 µM (inactive); in the assay with Hs-578T, 0.989 µM (active); in the assay with K562, 2.67 µM (inactive); in the assay with MDA-MB-435, 3.18 µM (inactive); with NCI-H23, 3.78 µM (inactive); in the assay on PC-3, 2.51 µM (inactive). Moreover, the GI50 in the assay on SK-MEL-28 was 3.87 µM (inactive); in the assay with SK-MEL-5 it was 2.3 µM (inactive); in the assay with SK-OV-3, 4.66 µM (inactive); in the assay on SNB-75 it was 3.18 µM (inactive); in the assay on T47D it was 2.86 µM (inactive); with UACC-257 it was 4.13 µM (inactive).
As for `C=CCOC(=O)Cn1cc(C)c(=O)[nH]c1=O`, the GI50 was > 100 µM (inactive) in the assay on COLO 205; > 100 µM (inactive) in the assay on EKVX; > 100 µM (inactive) in the assay with HCT-116; greater than 100 µM in the assay on HCT-15; > 100 µM (inactive) in the assay on HL-60; > 100 µM (inactive) with HOP-62. The GI50 in the assay on Hs-578T, in the assay with K562, in the assay on MDA-MB-435, in the assay with NCI-H226, in the assay with NCI-H23 and with PC-3 was > 100 µM (inactive) in each case. Moreover, the GI50 in the assay on SK-MEL-28, with SK-MEL-5, in the assay on SK-OV-3, in the assay with SNB-75, in the assay on T47D and in the assay with UACC-257 was > 100 µM (inactive) throughout.
With `COc1ccc(N2C(=O)C3ON(Cc4ccc(CC(N)=O)cc4)C(c4c5ccccc5c(C)c5ccccc45)C3C2=O)cc1` (stereo not drawn), the GI50 was 20.9 µM (inactive) with EKVX; 17.9 µM (inactive) in the assay with HCT-116; 17.1 µM with HCT-15; 14.9 µM (inactive) in the assay on HL-60; 40.4 µM (inactive) with HOP-62; 19 µM (inactive) in the assay on HOP-92. Further, the GI50 in the assay with Hs-578T is 54.8 µM (inactive); in the assay on K562 it was 3.27 µM (inactive); with MDA-MB-435, 27.2 µM (inactive); with NCI-H23, 32.7 µM (inactive); with PC-3, 21.6 µM (inactive); in the assay on SK-MEL-28, > 100 µM (inactive). Further, the GI50 with SK-OV-3 was > 100 µM (inactive); with SNB-75, 14.4 µM (inactive); in the assay with T47D, 17.6 µM (inactive); in the assay on UACC-257 it was 17.6 µM (inactive).
In the case of `COc1ccc2c(c1)CCN1CCCc3ccccc3C21` (stereo not drawn), the GI50 with COLO 205 is 27.6 µM (inactive); in the assay with EKVX, > 100 µM (inactive); with HCT-116 it was 30.9 µM (inactive); in the assay with HCT-15 it was 37.6 µM; with HOP-62 it was 69.2 µM (inactive); with HOP-92 it was 46.2 µM (inactive). Also, the GI50 was 42.1 µM (inactive) in the assay with Hs-578T; 30.1 µM (inactive) in the assay with K562; 20.5 µM (inactive) in the assay on MDA-MB-435; 28.1 µM (inactive) in the assay with NCI-H226; 45.8 µM (inactive) in the assay on NCI-H23; 36.9 µM (inactive) in the assay with PC-3. The GI50 was 50.1 µM (inactive) with SK-MEL-28; 58.5 µM (inactive) in the assay with SK-MEL-5; 46.3 µM (inactive) in the assay on SK-OV-3; 22 µM (inactive) in the assay on SNB-75; 45.1 µM (inactive) in the assay with T47D; 41.9 µM (inactive) with UACC-257.
For the compound `CC(C)[Si](CC1=CCCCC12C(=O)N(COCC[Si](C)(C)C)c1ccccc12)(C(C)C)C(C)C` (stereo not drawn), the GI50 in the assay with COLO 205 is > 100 µM (inactive); in the assay with EKVX it was 63.8 µM (inactive); in the assay with HCT-15, greater than 100 µM; with HOP-62 it was > 100 µM (inactive); with HOP-92 it was 89.3 µM (inactive); in the assay on Hs-578T, > 100 µM (inactive). For the same compound, the GI50 in the assay with K562 is > 100 µM (inactive); in the assay on MDA-MB-435, > 100 µM (inactive); in the assay with NCI-H226, > 100 µM (inactive); in the assay with NCI-H23, 66.8 µM (inactive); in the assay on PC-3, > 100 µM (inactive); in the assay with SK-MEL-28, 92.5 µM (inactive). Also, the GI50 was 43.7 µM (inactive) with SK-MEL-5; > 100 µM (inactive) in the assay on SK-OV-3; > 100 µM (inactive) in the assay with SNB-75; 33.7 µM (inactive) with T47D; 37.6 µM (inactive) in the assay on UACC-257.
Regarding `COC(=O)C1CCN(C(=O)OC(C)(C)C)CC1`, the GI50 in the assay on COLO 205 is > 100 µM (inactive); with EKVX, > 100 µM (inactive); with HCT-116, > 100 µM (inactive); in the assay with HCT-15, greater than 100 µM; in the assay on HL-60, > 100 µM (inactive); in the assay on HOP-62, > 100 µM (inactive). Moreover, the GI50 in the assay on HOP-92, in the assay with Hs-578T, in the assay with MDA-MB-435, in the assay with NCI-H23, in the assay on PC-3 and with SK-MEL-28 was > 100 µM (inactive) throughout. Besides, the GI50 in the assay with SK-MEL-5, in the assay on SNB-75, in the assay on T47D and with UACC-257 was > 100 µM (inactive) throughout.
As to `CC(C)(C)c1ccc(O)c(Br)c1`, the GI50 is > 100 µM (inactive) with COLO 205; > 100 µM (inactive) in the assay on EKVX; > 100 µM (inactive) with HCT-116; greater than 100 µM in the assay on HCT-15; 36.6 µM (inactive) with HL-60; > 100 µM (inactive) with HOP-62. Also, the GI50 in the assay on Hs-578T, in the assay with K562, with MDA-MB-435, with NCI-H226, with NCI-H23 and with PC-3 was > 100 µM (inactive) in each case. Further, the GI50 with SK-MEL-28 is > 100 µM (inactive); in the assay on SK-MEL-5, > 100 µM (inactive); with SK-OV-3, > 100 µM (inactive); in the assay with SNB-75, 15.1 µM (inactive); in the assay on T47D, 11.5 µM (inactive); in the assay with UACC-257, 26.2 µM (inactive).
Take `Oc1cc(N2CCCC2)ccc1/C=N/N1C(=S)N(c2ccccc2)C(=N\c2ccccc2)/C1=N/c1ccccc1`: the GI50 with COLO 205 is > 100 µM (inactive); with EKVX, > 100 µM (inactive); in the assay with HCT-116 it was 44.6 µM (inactive); in the assay with HCT-15 it was greater than 100 µM; in the assay on HOP-62 it was 35.2 µM (inactive); in the assay with HOP-92, 63.2 µM (inactive). Besides, the GI50 in the assay on Hs-578T is 60.4 µM (inactive); in the assay with K562, > 100 µM (inactive); in the assay on MDA-MB-435, > 100 µM (inactive); in the assay with NCI-H226, 58.6 µM (inactive); with NCI-H23, 87.7 µM (inactive); in the assay on PC-3 it was > 100 µM (inactive). Also, the GI50 with SK-MEL-28 was > 100 µM (inactive); in the assay on SK-MEL-5, 73.3 µM (inactive); in the assay on SK-OV-3, 99.8 µM (inactive); in the assay on T47D it was > 100 µM (inactive); with UACC-257 it was > 100 µM (inactive).
Regarding `CC(=O)Oc1ccc(/C=C/C(=O)O[C@@H](C)[C@H](C)OC(=O)/C=C/c2ccc(OC(C)=O)c(OC(C)=O)c2)cc1OC(C)=O`, the GI50 in the assay on COLO 205 was 29.5 µM (inactive); with EKVX it was 22.9 µM (inactive); in the assay with HCT-116, 7.5 µM (inactive); in the assay with HCT-15 it was 6.31 µM; with HOP-62, 7.45 µM (inactive); in the assay with HOP-92 it was 20.2 µM (inactive). The GI50 was 11 µM (inactive) with Hs-578T; 3.99 µM (inactive) in the assay with K562; 12.2 µM (inactive) with MDA-MB-435; 6.5 µM (inactive) in the assay on NCI-H23; 23.1 µM (inactive) in the assay on PC-3; 15.3 µM (inactive) in the assay on SK-MEL-28. The GI50 in the assay with SK-MEL-5 was 10.6 µM (inactive); in the assay on SK-OV-3 it was 19.5 µM (inactive); in the assay with SNB-75, 20.1 µM (inactive); with T47D, 13 µM (inactive); in the assay on UACC-257, 18.7 µM (inactive).
For `COc1cc2c(c(OC)c1OC)-c1ccc(SC)c(=O)cc1[C@@H](OC(=O)c1ccncc1)CC2`, the GI50 in the assay on COLO 205 is < 0.01 µM (active); in the assay with HCT-116, < 0.01 µM (active); with HCT-15, less than 0.01 µM; in the assay with HOP-92, 30.1 µM (inactive); with Hs-578T, < 0.01 µM (active); with K562, < 0.01 µM (active). The GI50 in the assay on MDA-MB-435 is < 0.01 µM (active); in the assay on NCI-H226, < 0.01 µM (active); in the assay on NCI-H23 it was < 0.01 µM (active); in the assay on PC-3 it was < 0.01 µM (active); in the assay on SK-MEL-5, < 0.01 µM (active); in the assay on SK-OV-3, 0.0165 µM (active). The GI50 with SNB-75 is < 0.01 µM (active); in the assay on T47D it was > 61.7 µM (inactive); in the assay with UACC-257 it was < 0.01 µM (active).
